Like-named read-outs stand apart in the source and are kept apart here. Marks after values point to notes of the source that are not given here.
Tests used:
Format in all cases: physicochemical
[1] = XPS phosphorus over metal ratio on Titanium grade 5 dental implant (prospective data); details: 0.5 mM, sonicated 65° C. 10 min, Metal = Ti2p + Al2s + V2p
Description: A Titanium grade 5 dental implant (bulk composition atomic concentration Titanium 90%, Aluminum 6%, Vanadium 4%; length 11.0 mm, diameter 3.75 mm) is provided with a roughened surface, produced by sand blasting and acid etching according to industry standards. The dental implant is immersed in 30 ml of a 2% (v/v) aqueous solution of deconex 15 PF-x (which is a phosphate free, potassium hydroxide based standard cleaning agent). The solution is placed in an ultrasonic bath (output frequency 30 kHz) and sonicated at 65° C. for 15 min. The implant is removed from the cleaning agent solution and rinsed with water as follows: 2 times with 30 ml, swirling at room temperature; 4 times with 30 ml, sonicating for 2 min at 65° C.; 1 time with 30 ml, swirling at room temperature. […] The solution is placed in the ultrasonic bath and sonicated at 65° C. for 10 min. The implant is rinsed with water as follows: 2 times with 10 ml, swirling at room temperature; 1 time with 10 ml, sonicating for 2 min at 65° C.; 1 time with 10 ml, swirling at room temperature. The dental implant is dried in a desiccator over P2O5 and under vacuum (ca 20 mbar) for at least 3 hours. The samples are analyzed by X-ray photoelectron spectroscopy (XPS). Same analysis conditions as described in Example 8 are used.

[2] = as above; details: room temperature comparative process
[3] = XPS phosphorus over metal ratio on Titanium grade 4 cylinders
Description: XPS analyses were performed on an Axis Ultra spectrometer from Kratos (Kratos, Manchester, U.K.) equipped with a concentric hemispherical analyzer and using a monochromatized aluminum anode X-ray source (Al Kα1,2 1486.6 eV, full width at half maximum, fwhm=0.85 eV, 15 kV, 150 W). The samples were investigated under ultrahigh vacuum conditions: 10^−8-10^−7 Pa. Spectra were taken at a 90° takeoff angle with respect to the surface. A sample area of 300×700 μm^2 or 700×700 μm^2 was analyzed with a pass energy of 80.0 eV for survey scans. The spectrometer was calibrated by using Cu 2p3/2 (932.7 eV) and Au 4f7/2 (84.0 eV) signals. Surface sensitivity factors used to determine the atomic concentrations were those of the instrument. Spectra were peak fitted after background subtraction by assuming a Gaussian/Lorentzian (90-70/10-30) peak shape. All peaks between 0 eV to 1200 eV were inspected.
Two Titanium grade 4 cylinders (bulk composition atomic concentration Titanium 100%; length 6.0 mm, diameter 2.4 mm) were provided with a roughened surface, produced by sand blasting and acid etching according to industry standards. The cylinders were immersed in 6 ml of a 2% (v/v) aqueous solution of deconex 15 PF-x (which is a phosphate free, potassium hydroxide based standard cleaning agent). The solution was placed in an ultrasonic bath (output frequency 30 kHz) and sonicated at 65° C. for 15 min. The cylinders were removed from the cleaning agent solution and rinsed with water as follows: 2 times with 10 ml, swirling at room temperature; 4 times with 10 ml, sonicating for 2 min at 65° C.; 1 time with 10 ml, swirling at room temperature. The cylinders were then placed into 6 ml of a 0.7 mM aqueous solution of 1,1,3,3-propane tetraphosphonic acid. The solution was placed in the ultrasonic bath and sonicated at 65° C. for 15 min. The cylinders were rinsed with water as follows: 2 times with 10 ml, swirling at room temperature; 1 time with 10 ml, sonicating for 2 min at 65° C.; 1 time with 10 ml, swirling at room temperature. The cylinders were dried in a desiccator over P2O5 and under vacuum (ca 20 mbar) for at least 3 hours.
Two Titanium grade 4 cylinders (bulk composition atomic concentration Titanium 100%; length 6.0 mm, diameter 2.4 mm) were provided with a roughened surface, produced by sand blasting and acid etching according to industry standards. The cylinders were immersed in 6 ml of a 2% (v/v) aqueous solution of deconex 15 PF-x (which is a phosphate free, potassium hydroxide based standard cleaning agent). The solution was placed in an ultrasonic bath (output frequency 30 kHz) and sonicated at room temperature for 15 min. The cylinders were removed from the cleaning agent solution and rinsed with water as follows: 2 times with 10 ml, swirling at room temperature; 4 times with 10 ml, sonicating for 2 min at room temperature; 1 time with 10 ml, swirling at room temperature. The cylinders were then placed into 6 ml of a 0.7 mM aqueous solution of 1,1,3,3-propane tetraphosphonic acid. The solution was swirled thoroughly and left to stand at room temperature for 15 min. The cylinders were rinsed with water as follows: 2 times with 10 ml, swirling at room temperature; 1 time with 10 ml, sonicating for 2 min at room temperature; 1 time with 10 ml, swirling at room temperature. The cylinders were dried in a desiccator over P2O5 and under vacuum (ca 20 mbar) for at least 3 hours.

[4] = Concentration 2 mM, sonicated 65° C. 15 min, Metal = Ti2p

| Phosphorus/Metal ([3]; Concentration 1 mM, sonicated 65° C. 15 min, Metal = Ti2p) | Structure (SMILES) | Phosphorus/Metal (surface treatment as described herein above) [1] | Phosphorus/Metal (surface treatment as described in Comp. Example 6) [2] | Phosphorus/Metal [3] | Phosphorus/Metal [3, 4] |
| --- | --- | --- | --- | --- | --- |
| – | O=P(O)(O)C1CCCCC1 [PA-5, 1-cyclohexyl phosphonic acid] | 0.16-0.20 | 0.05-0.11 | – | – |
| – | O=P(O)(O)CP(=O)(O)O [Methylene-1,1-diphosphonic acid] | – | – | 0.10^b | – |
| – | O=P(O)(O)CCCP(=O)(O)O [PA-2, propane-1,3-diphosphonic acid] | 0.16-0.20 | 0.05-0.11 | – | – |
| – | O=C(CP(=O)(O)O)Oc1ccccc1C(=O)O [PA-9, 2-(2-phosphonoacetoxy)benzoic acid] | 0.16-0.20 | 0.05-0.11 | – | – |
| – | NC(CP(=O)(O)O)C(=O)O (centres unmarked) [PA-8, 2-amino-3-phosphonopropionic acid] | 0.16-0.20 | 0.05-0.11 | – | – |
| – | CC(C)(C)P(=O)(O)O [PA-3, tert-butyl phosphonic acid] | 0.16-0.20 | 0.05-0.11 | – | 0.02^b |
| – | C=CCP(=O)(O)O [PA-4, 1-propene-3-phosphonic acid] | 0.16-0.20 | 0.05-0.11 | – | – |
| – | O=P(O)(O)c1ccccc1 [PA-6, phenyl-1-phosphonic acid] | 0.16-0.20 | 0.05-0.11 | – | 0.03^b |
| 0.09^b | CC(O)(P(=O)(O)O)P(=O)(O)O [PA-10, etidronic acid, reference compound] | 0.16-0.20 | 0.05-0.11 | – | – |
